These results are taken from article PMC4212957, “The serodominant secreted effector protein of Salmonella, SseB, is a strong CD4 antigen containing an immunodominant epitope presented by diverse HLA class II alleles” (Immunology, 2014).

One experiment deals with HLA-DRB1*04:01 (Homo sapiens, UniProt P01903+P01911, A100K/A169T/F76Y/I96L/K127E/L162R/M171V/N62H/P40V/Q125Y/R42H/S133A/S149N/S66Y/V115G/V209L/W38E). Conditions: competitive ELISA; ratio IC50 of peptide / IC50 of reference peptide HA 306–318; lower = higher affinity; ratio 20 or less high, 20–100 moderate; three independent experiments.
Experiment [1] has as its system draining lymph node cells of HLA-DR1 transgenic mice. Description: Murine IFN-γ ELISpot, HLA-DR1 transgenic mice primed with SseB. Conditions: mouse, in vivo. From the text: Mice transgenic for HLA-DR1 (that is, HLA-DRA1*0101/HLA-DRB1*0101) and HLA-DR4 (that is, HLA-DRA1*0101/HLA-DRB1*0401)[24]–[26] were bred and housed in the Centre for Biological Services at the Hammersmith campus, Imperial College London, UK, in accordance with Home Office regulations and College ethics review. Both transgenic lines are maintained on a C57BL/6 background as homozygotes for knockout of murine MHC Class II H2-Aβ.[27]
HLA-DR1 or HLA-DR4 transgenic mice were primed, by subcutaneous injection into the footpad, with 25 μg of recombinant SseB protein administered as a 1 : 1 emulsion with TiterMax® Gold (CytRx Corporation, Los Angeles, CA). Ten days after priming, popliteal draining lymph nodes were harvested and stimulated, in triplicate, at 2 × 10^5 cells per well with 25 μg of SseB peptide or recombinant protein in pre-coated murine IFN-γ ELISpot plates (2BScientific, Upper Heyford, Oxfordshire, UK). Culture medium was RPMI-1640 containing 2 mM L-glutamine, 50 U/ml penicillin G, 50 μg/ml streptomycin sulphate, 50 μM β-mercaptoethanol and 10% fetal calf serum. Cells were cultured at 37° and in 5% CO2 for 72 hr before assay development using a biotinylated anti-IFN-γ antibody, a horseradish peroxidase detection antibody and TMB substrate (2BScientific). Developed plates were left to dry before spot counting using an AID ELISpot reader (Autoimmun Diagnostika GMBH). Positive epitopes for a given transgenic line were defined as those where more than half of assayed animals gave a greater number of spot-forming cells than 2 SD over the mean of the no protein/peptide control.
Fig 1 Definition of HLA-DR specific T-cell epitopes in DR1 and DR4 transgenic mice. (a) HLA-DR1 (n = 5) and (b) HLA-DR4 (n = 6) mice were footpad primed with ssEB protein in combination with TiterMax® Gold adjuvant. Draining lymph node (DLN) cells were assayed by ELISpot at day 10 for interferon-γ (IFN-γ) T-cell responses to ssEB peptides and protein. A peptide was defined as containing a T-cell epitope for DR1 or DR4 HLA molecules if more than half of the mice assayed gave a greater number of spot-forming cells than 2 SD over the mean of the no peptide/protein control. The 2 SD value for each transgenic line is shown by a dotted line.

For a further experiment, the target named is HLA-DRB1*11:01 (Homo sapiens, UniProt P01903+P01911, A100R/A169T/A87E/I96F/K41T/L162R/M171V/P40S/Q125H/Q178H/Q39Y/Q99D/R42S/S66Y/T262R/V115G/W38E). To be noted: competitive ELISA; ratio IC50 of peptide / IC50 of reference peptide HA 306–318; lower = higher affinity; ratio 20 or less high, 20–100 moderate; three independent experiments.
The target in the next experiment is T1, HLA-DRB1*03:01 (Homo sapiens, UniProt P01903+P01911, A100K/A102G/A103R/A169T/F55Y/I96L/K41T/L162R/M171V/P40S/Q125H/Q178H/Q39Y/R42S/S66N/T106N/T262R/W38E/Y61H).
T1 construct: HLA-DR heterodimers were purified from homozygous Epstein–Barr virus B-lymphoblastoid cell lines; host or cells: homozygous EBV B-lymphoblastoid cell line
The experiment can be described thus: Peptide/HLA-DR binding, competitive ELISA. Conditions: ratio IC50 of peptide / IC50 of reference peptide MT2-16, lower = higher affinity, ratio 20 or less high, 20–100 moderate, three independent experiments. The method in brief: (§1)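 HLA-DR heterodimers, affinity-purified with L243 from homozygous EBV B-lymphoblastoid lines, were tested in competitive ELISA against biotinylated reference peptides. The IC50 is the peptide concentration inhibiting 50% of labelled-peptide binding, expressed as relative affinity to the unlabelled reference peptide.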

For another experiment, the target named is HLA-DRB1*12:02 (Homo sapiens, UniProt P01903+P01911, A100R/A169T/D57E/D86V/F55L/H45Y/I96F/K41T/L162R/M171V/P40S/Q125H/Q178H/Q39Y/Q99D/R42G/S66L/T262R/V114A/V67L/W38E/Y59H/Y61H/Y89S). The experiment can be described thus: Peptide/HLA-DR binding, competitive ELISA. Conditions: ratio IC50 of peptide / IC50 of reference peptide TFR 141–155, lower = higher affinity, ratio 20 or less high, 20–100 moderate, three independent experiments. The method in brief:
as §1

The next experiment concerns the target T2, HLA-DRB1*15:02 (Homo sapiens, UniProt P01903+P01911, V115G).
T2 construct: HLA-DR heterodimers were purified from homozygous Epstein–Barr virus B-lymphoblastoid cell lines; host or cells: homozygous EBV B-lymphoblastoid cell line
Description: Peptide/HLA-DR binding, competitive ELISA. Conditions: ratio IC50 of peptide / IC50 of reference peptide TFR 607–620, lower = higher affinity, ratio 20 or less high, 20–100 moderate, three independent experiments. An outline of the steps:
as §1

The subject of the next experiment is HLA-DR heterodimers. Description: Breadth of binding across the HLA-DR panel. Details: species or system human. Conditions: of nine HLA-DR molecules screened; competitive ELISA. As for the experimental part:
HLA-DR heterodimers were purified from homozygous Epstein–Barr virus B-lymphoblastoid cell lines (HPA Culture Collections, Salisbury, UK) by affinity chromatography with the monomorphic HLA-DRα monoclonal antibody, L243.[29],[30] Binding of the SseB peptide panel to the HLA-DR molecules HLA-DRB1*01:01, 03:01, 04:01, 07:01, 09:01, 11:01, 12:02, 15:01, 15:02 was assessed by competitive ELISA, as previously described, using an automated workstation.[29],[30] We evaluated the peptide concentration able to prevent binding of 50% of the labelled peptide (IC50). Data were expressed as relative affinity: ratio of the IC50 of the peptide to the IC50 of the reference peptide, which is a high binder to the HLA class II molecule. Unlabelled forms of the biotinylated peptides were used as reference peptides.
The HLA-DR peptide-binding assay used here was designed to give a strong coverage of commonly expressed alleles across diverse populations. For example, the DR1, 3, 4, 7, 11 and 1501 heterodimers cumulatively cover approximately 80% of individuals in Caucasian populations, whereas DR9, DR1202 and DR1502 are rare in Caucasian populations but are found in around a third of individuals in many South East Asian populations. Of the 18 peptides encompassing the SseB overlapping peptide library, 15 show significant HLA-DR binding (Table2). Eight peptides were able to bind specifically to only one or two alleles, but the seven other binders were able to bind more heterodimers. It is noteworthy that there are three peptides, p2, p11 and p18, with the property of binding 6, 7 and 8 different HLA-DR heterodimers, respectively. They span HLA-DRB sequences with rather diverse peptide-binding pockets.

Take “2: SseB overlapping library peptide, residues 11–30 (QNPIVFKNSFGVSNADTGSQ) [Peptide 2]”: in the experiment with HLA-DRB1*04:01, the “Relative binding affinity of peptide to HLA-DR molecules DRB1*0401” value was determined as 9. Besides, in experiment [1], the “IFN-γ ELISpot recall response / CD4 epitope in HLA-DR1 transgenic mice” value is given as “carry HLA-DR1 restricted immunodominant CD4 epitopes”. In addition, the “Relative binding affinity of peptide to HLA-DR molecules DRB1*1101” value with HLA-DRB1*11:01 is reported as over 278. The “Relative binding affinity of peptide to HLA-DR molecules DRB1*0301” value with HLA-DRB1*03:01 is on record as over 119. In addition, the “Relative binding affinity of peptide to HLA-DR molecules DRB1*1202” value with HLA-DRB1*12:02 came to 59. Besides, the “Relative binding affinity of peptide to HLA-DR molecules DRB1*1502” value with HLA-DRB1*15:02 is reported as 5. Moreover, in the experiment with HLA-DR heterodimers, the “number of different HLA-DR heterodimers bound” value worked out at 6.

With “11: SseB overlapping library peptide, residues 101–120 (EDVIKYMRDNGILIDGMTID) [Peptide 11]”, in the experiment with HLA-DRB1*04:01, the “Relative binding affinity of peptide to HLA-DR molecules DRB1*0401” value turned out to be 17. Besides, the “IFN-γ ELISpot recall response / CD4 epitope in HLA-DR1 transgenic mice” value in experiment [1] is given as “carry HLA-DR1 restricted immunodominant CD4 epitopes”. The “Relative binding affinity of peptide to HLA-DR molecules DRB1*1101” value with HLA-DRB1*11:01 is over 278. The “Relative binding affinity of peptide to HLA-DR molecules DRB1*0301” value with HLA-DRB1*03:01 is on record as over 119. Moreover, the “Relative binding affinity of peptide to HLA-DR molecules DRB1*1202” value with HLA-DRB1*12:02 turned out to be 8. Further, the “Relative binding affinity of peptide to HLA-DR molecules DRB1*1502” value in the experiment with HLA-DRB1*15:02 stood at 37. Further, in the experiment on HLA-DR heterodimers, the “number of different HLA-DR heterodimers bound” value worked out at 7.

Regarding “AVLTQLTGLISKWGEISSMIAQKTYS [Peptide 18, SseB overlapping library peptide, residues 171–196]”, the “Relative binding affinity of peptide to HLA-DR molecules DRB1*0401” value on HLA-DRB1*04:01 was 2. In addition, the “IFN-γ ELISpot recall response / CD4 epitope in HLA-DR1 transgenic mice” value in experiment [1] was “carry HLA-DR1 restricted immunodominant CD4 epitopes”. The “Relative binding affinity of peptide to HLA-DR molecules DRB1*1101” value on HLA-DRB1*11:01 is 7. In addition, the “Relative binding affinity of peptide to HLA-DR molecules DRB1*0301” value on HLA-DRB1*03:01 is reported as over 119. For the same substance, the “Relative binding affinity of peptide to HLA-DR molecules DRB1*1202” value at HLA-DRB1*12:02 stood at 4. In addition, the “Relative binding affinity of peptide to HLA-DR molecules DRB1*1502” value at HLA-DRB1*15:02 is reported as 63. In addition, in the experiment on HLA-DR heterodimers, the “number of different HLA-DR heterodimers bound” value came out at 8.
